From article PMC6110922, “Inhibition of Chloride Intracellular Channel 1 (CLIC1) as Biguanide Class-Effect to Impair Human Glioblastoma Stem Cell Viability” (Frontiers in Pharmacology, 2018)
Where a name gives a salt, the structure may show the parent alone.

Biological target: T1, chloride intracellular channel 1 (CLIC1) (Homo sapiens, UniProt O00299)
T1 construct: endogenous channel in GBM2 and GBM4 glioblastoma stem cells
Experiment: perforated-patch whole-cell patch clamp, CLIC1 (IAA94-sensitive) current
Assay type: cell-based

SMILES | perforated-patch whole-cell patch clamp, CLIC1 (IAA94-sensitive) current [mM]
CN(C)C(=N)NC(=N)N [metformin, 1,1-dimethylbiguanide hydrochloride] | 10
CC1(C)N=C(N)N=C(N)N1c1ccc(Cl)cc1 [cycloguanil] | 0.5
